Patent US6890954B1, “Uses of 2-bromopalmitate in the treatment of autoimmune disease” (priority 1999, dated 2005)

Experiments:
Format in all cases: cell-based
PI3K = assay: CD3-mediated tyrosine phosphorylation of PI3K in Jurkat cells; conditions: 100 μM 3 hours, OKT3
Method: (§1) Jurkat T cells (2×10^6−1×10^7) were centrifuged at 1,000×g for 5 minutes, rinsed with RPMI, resuspended in RPMI supplemented with 2% dialyzed FBS, 0.5% defatted BSA, and incubated with or without 100 μM 2-bromopalmitate at 8×10^5 cells/ml for 3 hours. The cells were centrifuged, washed with RPMI and resuspended in RPMI at 1×10^7−1×10^8 cells/ml. The cells were then activated with anti-CD3 OKT3 mAb (0.3 mg/ml) for 3 min at 37° C., quickly spun down, washed once with cold RPMI and once with cold STE, and lysed in RIPA Samples were solubilized in 1× sample buffer containing 5% β-mercaptoethanol and subjected to SDS-PAGE, followed by immunoblotting with anti-phosphotyrosine antibody (PY99). For analysis of specific proteins, RIPA lysates were immunoprecipitated with the specific antibodies O/N, and immunoblotted for phosphotyrosine. Alternatively, proteins were immunoprecipitated with agarose-conjugated anti phosphotyrosine antibody and blotted for the specific proteins.
(§2) In order to identify the individual proteins whose tyrosine phosphorylation is affected by 2-bromopalmitate, lysates were immunoprecipitated with a panel of specific antibodies, and immunoblotted for phosphotyrosine. Alternatively, lysates were immunoprecipitated with an antiphosphotyrosine antibody, and blotted with antibodies to specific proteins.

PLC-γl = assay: CD3-mediated tyrosine phosphorylation of PLC-γl in Jurkat cells; conditions: 100 μM 3 hours, OKT3
Method: as §1, §2

Jurkat T cells = assay: Calcium mobilization assay in Jurkat T cells (fluo-3, flow cytometry)
Method: Jurkat cells were treated with 2-bromopalmitate as described above. The cells (2×10^5) were collected by centrifugation and resuspended at 2×10^6 cells/ml in RPMI containing in 50 μM fluo-3 with or without 100 μM 2-bromopalmitate for 30 minutes at room temperature. Cells loaded with fluo-3 were then collected by centrigation, washed with Hank's Buffered Saline Solution (5.4 mM KCl, 0.3 mM Na2HPO4, 0.4 mM KH2PO4, 4 mM NaHCO3, 1.3 mM CaCl2, 0.5 mM MgCl2, 0.6 mM MgSO4, 137 mM NaCl, 5.6 mM glucose, 20 mM Hepes pH 7.4) and resuspended in the same buffer at 5×10^5 cells/ml at 37° C. To initiate calcium flux, the cells were activated with OKT3 antibody as described above, and analyzed for free calcium ion by measurement of fluo-3 fluoresence emission by flow cytometry.
Jurkat cells were incubated with or without 2-bromopalmitate, washed and stained with the fluorescent dye fluo-3 (50 μM). Cells were activated with OKT3 antibody and analyzed by flow cytometry. […] No effect of 2-bromopalmitate on cells incubated in the absence of OKT3 was noted.

LAT [1] = assay: DRM (raft) localization in activated Jurkat cells, sucrose gradient: LAT; conditions: 100 μM 3 hours, OKT3 activated, control 71%
Method: Isolation of Triton X-100 resistant and soluble fractions was carried out as described previously (12). Isolation of detergent resistant microdomains by sucrose gradients were carried out as follows (19): Jurkat cells (5×10^7) were treated with 2-bromopalmitate, activated with OKT3 mAb as described above, and lysed in 1 ml lysis buffer (25 mM MES pH 6.5, 150 mM NaCl, 0.5% Triton X-100, 1 mM Na3VO4) supplemented with protease inhibitors for 30 minutes at 0° C. After homogenizing 10 times with a loose fit Dounce homogenizer, lysates were mixed with 1 ml 85% sucrose in MBS (25 mM MES pH 6.5, 150 mM NaCl), and overlayered with 6 ml 30% sucrose in MBS, then with 4 ml 5% sucrose in MBS. Following centrifugation for 16 hours at 145,000 g in an SW40 rotor, 1 ml fractions were collected and analyzed by PAGE and immunoblotting with anti-Fyn, anti-LAT, or anti-Lck antibodies.
The ability of 2-bromopalmitate to inhibit localization of palmitoylated proteins to detergent resistant microdomains in activated Jurkat cells was examined next. Cells were either left untreated or treated with 100 μM 2-bromopalmitate for 3 hours, washed, resuspended in serum-free media, and the TCR was activated with OKT3 mAb. Activated cells were extracted with Triton X-100 containing buffer. […] Each fraction was analyzed by immunoblotting with specific antibodies. […]

Jurkat cells = assay: Toxicity control: LAT and actin levels by immunoblot in Jurkat cells; conditions: toxicity check, data not shown
Method: To verify that the observed inhibition of T cell receptor-mediated tyrosine phosphorylation was not a result of toxicity effects of 2-bromopalmitate, aliquots of each sample were analyzed by immunoblotting with anti-LAT and anti-actin antibodies. The levels of LAT and actin were not affected by 2-bromopalmitate (data not shown). Thus 2-bromopalmitate was able to inhibit signaling through the T cell receptor, as assayed by its ability to inhibit tyrosine phosphorylation of key substrate proteins.

LAT [2] = assay: CD3-mediated tyrosine phosphorylation of LAT in Jurkat cells; conditions: 100 μM 3 hours, OKT3
Method: as §1, §2

Vav = assay: CD3-mediated tyrosine phosphorylation of Vav in Jurkat cells; conditions: 100 μM 3 hours, OKT3
Method: as §1, §2

[3] = test system: T cell receptor signaling; assay: TCR-mediated tyrosine phosphorylation in Jurkat T cells (anti-phosphotyrosine immunoblot)
Method: as §1
Jurkat cells were incubated with 2-bromopalmitate and activated with OKT3 anti-CD3 antibody. Cell lysates were analyzed by immunoblotting with anti phosphotyrosine antibodies. In control cells, stimulation with OKT3 antibodies induced tyrosine phosphorylation of multiple proteins (Fig 5A). […] The most dramatic effect was on a 36 kDa protein, which represents LAT (see below).

## CCCCCCCCCCCCCCC(Br)C(=O)O (centres unmarked) [2-bromopalmitate]
PI3K
  PI3K phosphorylation inhibited: 50%
PLC-γl
  PLC-γl phosphorylation inhibited: 70%
Jurkat T cells; 100 μM, OKT3 activated
  calcium flux in response to T cell receptor activation: shut down almost completely
Jurkat T cells; no OKT3
  effect on calcium in cells incubated in the absence of OKT3: No effect
LAT [1]
  LAT associated with detergent resistant microdomains: 41%
Jurkat cells
  levels of LAT and actin: not affected
LAT [2]
  CD3-mediated tyrosine phosphorylation of LAT: inhibited completely
Vav
  Vav phosphorylation inhibited: 40%
[3]; 100 μM 3 hours, OKT3 3 min
  OKT3-induced tyrosine phosphorylation of several proteins: significantly inhibited
[3]; FIG. 5B
  reduction of tyrosine phosphorylation on the signaling molecules examined, basal activation taken into account: 70-100%
[3]; unactivated
  tyrosine phosphorylation in the presence of 2-bromopalmitate alone (no stimulation), some proteins: Low to moderate increases
